Two compounds from publication PMC6120666 (The EMBO Journal, 2018) can be followed below.

The structures appear in SMILES notation.

Common to all, as to test: Drug affinity chromatography with c-ponatinib and LC-MS/MS (ponatinib interactome)
What all share (format): binding

In test [1] the target is T1, proteins of U2OS cell lysate (Homo sapiens, UniProt Q9NWB6).
T1 construct: Proteins enriched by c-ponatinib from U2OS cell lysate; endogenous in cells; host or cells: U2OS cell lysate
The note with it: ARGLU1, Arginine and glutamate-rich protein 1. The essentials:
(§1)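 U2OS cell lysate in NP-40 lysis buffer (2 mg protein per pulldown) was incubated with amine-derivatized NHS beads for 2 h at 4 °C. Bound proteins were washed, eluted with 100 mM formic acid, reduced, alkylated and trypsin-digested, then identified by nano-UPLC–MS/MS on Orbitrap instruments with a 60 min gradient.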

Test [2] deals with T2, proteins of U2OS cell lysate (Homo sapiens, UniProt Q8N3V7).
T2 construct: Proteins enriched by c-ponatinib from U2OS cell lysate; endogenous in cells; host or cells: U2OS cell lysate
To be noted: SYNPO, Synaptopodin. The essentials:
as §1

In test [3] the target is T3, proteins of U2OS cell lysate (Homo sapiens, UniProt O95347).
T3 construct: Proteins enriched by c-ponatinib from U2OS cell lysate; endogenous in cells; host or cells: U2OS cell lysate
The note with it: SMC2, Structural maintenance of chromosomes protein 2. In a few lines:
as §1

Test [4] addresses T4, proteins of U2OS cell lysate (Homo sapiens, UniProt P04792).
T4 construct: Proteins enriched by c-ponatinib from U2OS cell lysate; endogenous in cells; host or cells: U2OS cell lysate
The note with it: HSPB1, Heat shock protein beta-1. The essentials: as §1

For test [5], the target named is T5, proteins of U2OS cell lysate (Homo sapiens, UniProt Q9BSJ8).
T5 construct: Proteins enriched by c-ponatinib from U2OS cell lysate; endogenous in cells; host or cells: U2OS cell lysate
To be noted: ESYT1, Extended synaptotagmin-1. The essentials:
as §1

Test [6] concerns the target T6, proteins of U2OS cell lysate (Homo sapiens, UniProt P31946).
T6 construct: Proteins enriched by c-ponatinib from U2OS cell lysate; endogenous in cells; host or cells: U2OS cell lysate
To be noted: YWHAB, 14-3-3 protein beta/alpha. In a few lines:
as §1

In test [7] the target is T7, proteins of U2OS cell lysate (Homo sapiens, UniProt Q92616).
T7 construct: Proteins enriched by c-ponatinib from U2OS cell lysate; endogenous in cells; host or cells: U2OS cell lysate
To be noted: GCN1L1, Translational activator GCN1. The essentials: as §1

For test [8], the target named is T8, proteins of U2OS cell lysate (Homo sapiens, UniProt Q13546).
T8 construct: Proteins enriched by c-ponatinib from U2OS cell lysate; endogenous in cells; host or cells: U2OS cell lysate
The note with it: RIPK1, Receptor-interacting serine/threonine-protein kinase 1. In a few lines:
as §1

The target in test [9] is T9, proteins of U2OS cell lysate (Homo sapiens, UniProt P49756).
T9 construct: Proteins enriched by c-ponatinib from U2OS cell lysate; endogenous in cells; host or cells: U2OS cell lysate
The note with it: RBM25, RNA-binding protein 25. The essentials:
as §1

The target in test [10] is T10, proteins of U2OS cell lysate (Homo sapiens, UniProt P46783).
T10 construct: Proteins enriched by c-ponatinib from U2OS cell lysate; endogenous in cells; host or cells: U2OS cell lysate
The note with it: RPS10;RPS10P5, 40S ribosomal protein S10. The essentials: as §1

Test [11] concerns the target T11, proteins of U2OS cell lysate (Homo sapiens, UniProt Q13418).
T11 construct: Proteins enriched by c-ponatinib from U2OS cell lysate; endogenous in cells; host or cells: U2OS cell lysate
To be noted: ILK, Integrin-linked protein kinase. In a few lines:
as §1

Test [12] has as its target T12, proteins of U2OS cell lysate (Homo sapiens, UniProt P68363).
T12 construct: Proteins enriched by c-ponatinib from U2OS cell lysate; endogenous in cells; host or cells: U2OS cell lysate
The note with it: TUBA1B;TUBA1A, Tubulin alpha-1B chain. The essentials:
as §1

Test [13] addresses T13, proteins of U2OS cell lysate (Homo sapiens, UniProt P49792).
T13 construct: Proteins enriched by c-ponatinib from U2OS cell lysate; endogenous in cells; host or cells: U2OS cell lysate
The note with it: RANBP2, E3 SUMO-protein ligase RanBP2. In a few lines: as §1

The target of test [14] is T14, proteins of U2OS cell lysate (Homo sapiens, UniProt P50990).
T14 construct: Proteins enriched by c-ponatinib from U2OS cell lysate; endogenous in cells; host or cells: U2OS cell lysate
To be noted: CCT8, T-complex protein 1 subunit theta. The essentials: as §1

Test [15] deals with T15, proteins of U2OS cell lysate (Homo sapiens, UniProt P27708).
T15 construct: Proteins enriched by c-ponatinib from U2OS cell lysate; endogenous in cells; host or cells: U2OS cell lysate
To be noted: CAD, CAD protein. In a few lines:
as §1

Test [16] concerns the target T16, proteins of U2OS cell lysate (Homo sapiens, UniProt P55084).
T16 construct: Proteins enriched by c-ponatinib from U2OS cell lysate; endogenous in cells; host or cells: U2OS cell lysate
To be noted: HADHB, Trifunctional enzyme subunit beta, mitochondrial. The essentials: as §1

In test [17] the target is T17, proteins of U2OS cell lysate (Homo sapiens, UniProt P31947).
T17 construct: Proteins enriched by c-ponatinib from U2OS cell lysate; endogenous in cells; host or cells: U2OS cell lysate
The note with it: SFN, 14-3-3 protein sigma. The essentials: as §1

Test [18] addresses T18, proteins of U2OS cell lysate (Homo sapiens, UniProt P05388).
T18 construct: Proteins enriched by c-ponatinib from U2OS cell lysate; endogenous in cells; host or cells: U2OS cell lysate
To be noted: RPLP0;RPLP0P6, 60S acidic ribosomal protein P0. In a few lines:
as §1

The target in test [19] is T19, proteins of U2OS cell lysate (Homo sapiens, UniProt P46782).
T19 construct: Proteins enriched by c-ponatinib from U2OS cell lysate; endogenous in cells; host or cells: U2OS cell lysate
The note with it: captured protein RPS5, Rank 160. The essentials:
as §1

T17 sequence (P31947 whole entry): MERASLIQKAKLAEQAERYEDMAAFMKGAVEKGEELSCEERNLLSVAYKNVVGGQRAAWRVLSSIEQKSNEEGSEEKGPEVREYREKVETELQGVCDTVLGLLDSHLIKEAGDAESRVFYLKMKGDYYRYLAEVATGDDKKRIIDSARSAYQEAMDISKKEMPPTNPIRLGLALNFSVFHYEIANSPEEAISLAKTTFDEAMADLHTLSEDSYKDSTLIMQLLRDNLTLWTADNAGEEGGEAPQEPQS
T16 sequence (P55084 34-474): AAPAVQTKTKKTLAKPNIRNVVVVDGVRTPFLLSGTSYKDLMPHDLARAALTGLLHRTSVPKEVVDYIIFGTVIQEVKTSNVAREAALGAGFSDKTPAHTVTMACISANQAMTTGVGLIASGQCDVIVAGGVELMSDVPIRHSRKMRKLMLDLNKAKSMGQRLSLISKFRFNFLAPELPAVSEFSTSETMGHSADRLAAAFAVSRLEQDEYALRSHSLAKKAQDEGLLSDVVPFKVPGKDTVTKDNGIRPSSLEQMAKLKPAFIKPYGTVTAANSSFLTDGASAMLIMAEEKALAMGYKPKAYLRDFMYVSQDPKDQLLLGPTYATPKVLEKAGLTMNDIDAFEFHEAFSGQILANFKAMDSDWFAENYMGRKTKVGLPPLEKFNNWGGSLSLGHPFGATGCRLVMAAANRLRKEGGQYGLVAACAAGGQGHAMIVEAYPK
T7 sequence (Q92616 whole entry): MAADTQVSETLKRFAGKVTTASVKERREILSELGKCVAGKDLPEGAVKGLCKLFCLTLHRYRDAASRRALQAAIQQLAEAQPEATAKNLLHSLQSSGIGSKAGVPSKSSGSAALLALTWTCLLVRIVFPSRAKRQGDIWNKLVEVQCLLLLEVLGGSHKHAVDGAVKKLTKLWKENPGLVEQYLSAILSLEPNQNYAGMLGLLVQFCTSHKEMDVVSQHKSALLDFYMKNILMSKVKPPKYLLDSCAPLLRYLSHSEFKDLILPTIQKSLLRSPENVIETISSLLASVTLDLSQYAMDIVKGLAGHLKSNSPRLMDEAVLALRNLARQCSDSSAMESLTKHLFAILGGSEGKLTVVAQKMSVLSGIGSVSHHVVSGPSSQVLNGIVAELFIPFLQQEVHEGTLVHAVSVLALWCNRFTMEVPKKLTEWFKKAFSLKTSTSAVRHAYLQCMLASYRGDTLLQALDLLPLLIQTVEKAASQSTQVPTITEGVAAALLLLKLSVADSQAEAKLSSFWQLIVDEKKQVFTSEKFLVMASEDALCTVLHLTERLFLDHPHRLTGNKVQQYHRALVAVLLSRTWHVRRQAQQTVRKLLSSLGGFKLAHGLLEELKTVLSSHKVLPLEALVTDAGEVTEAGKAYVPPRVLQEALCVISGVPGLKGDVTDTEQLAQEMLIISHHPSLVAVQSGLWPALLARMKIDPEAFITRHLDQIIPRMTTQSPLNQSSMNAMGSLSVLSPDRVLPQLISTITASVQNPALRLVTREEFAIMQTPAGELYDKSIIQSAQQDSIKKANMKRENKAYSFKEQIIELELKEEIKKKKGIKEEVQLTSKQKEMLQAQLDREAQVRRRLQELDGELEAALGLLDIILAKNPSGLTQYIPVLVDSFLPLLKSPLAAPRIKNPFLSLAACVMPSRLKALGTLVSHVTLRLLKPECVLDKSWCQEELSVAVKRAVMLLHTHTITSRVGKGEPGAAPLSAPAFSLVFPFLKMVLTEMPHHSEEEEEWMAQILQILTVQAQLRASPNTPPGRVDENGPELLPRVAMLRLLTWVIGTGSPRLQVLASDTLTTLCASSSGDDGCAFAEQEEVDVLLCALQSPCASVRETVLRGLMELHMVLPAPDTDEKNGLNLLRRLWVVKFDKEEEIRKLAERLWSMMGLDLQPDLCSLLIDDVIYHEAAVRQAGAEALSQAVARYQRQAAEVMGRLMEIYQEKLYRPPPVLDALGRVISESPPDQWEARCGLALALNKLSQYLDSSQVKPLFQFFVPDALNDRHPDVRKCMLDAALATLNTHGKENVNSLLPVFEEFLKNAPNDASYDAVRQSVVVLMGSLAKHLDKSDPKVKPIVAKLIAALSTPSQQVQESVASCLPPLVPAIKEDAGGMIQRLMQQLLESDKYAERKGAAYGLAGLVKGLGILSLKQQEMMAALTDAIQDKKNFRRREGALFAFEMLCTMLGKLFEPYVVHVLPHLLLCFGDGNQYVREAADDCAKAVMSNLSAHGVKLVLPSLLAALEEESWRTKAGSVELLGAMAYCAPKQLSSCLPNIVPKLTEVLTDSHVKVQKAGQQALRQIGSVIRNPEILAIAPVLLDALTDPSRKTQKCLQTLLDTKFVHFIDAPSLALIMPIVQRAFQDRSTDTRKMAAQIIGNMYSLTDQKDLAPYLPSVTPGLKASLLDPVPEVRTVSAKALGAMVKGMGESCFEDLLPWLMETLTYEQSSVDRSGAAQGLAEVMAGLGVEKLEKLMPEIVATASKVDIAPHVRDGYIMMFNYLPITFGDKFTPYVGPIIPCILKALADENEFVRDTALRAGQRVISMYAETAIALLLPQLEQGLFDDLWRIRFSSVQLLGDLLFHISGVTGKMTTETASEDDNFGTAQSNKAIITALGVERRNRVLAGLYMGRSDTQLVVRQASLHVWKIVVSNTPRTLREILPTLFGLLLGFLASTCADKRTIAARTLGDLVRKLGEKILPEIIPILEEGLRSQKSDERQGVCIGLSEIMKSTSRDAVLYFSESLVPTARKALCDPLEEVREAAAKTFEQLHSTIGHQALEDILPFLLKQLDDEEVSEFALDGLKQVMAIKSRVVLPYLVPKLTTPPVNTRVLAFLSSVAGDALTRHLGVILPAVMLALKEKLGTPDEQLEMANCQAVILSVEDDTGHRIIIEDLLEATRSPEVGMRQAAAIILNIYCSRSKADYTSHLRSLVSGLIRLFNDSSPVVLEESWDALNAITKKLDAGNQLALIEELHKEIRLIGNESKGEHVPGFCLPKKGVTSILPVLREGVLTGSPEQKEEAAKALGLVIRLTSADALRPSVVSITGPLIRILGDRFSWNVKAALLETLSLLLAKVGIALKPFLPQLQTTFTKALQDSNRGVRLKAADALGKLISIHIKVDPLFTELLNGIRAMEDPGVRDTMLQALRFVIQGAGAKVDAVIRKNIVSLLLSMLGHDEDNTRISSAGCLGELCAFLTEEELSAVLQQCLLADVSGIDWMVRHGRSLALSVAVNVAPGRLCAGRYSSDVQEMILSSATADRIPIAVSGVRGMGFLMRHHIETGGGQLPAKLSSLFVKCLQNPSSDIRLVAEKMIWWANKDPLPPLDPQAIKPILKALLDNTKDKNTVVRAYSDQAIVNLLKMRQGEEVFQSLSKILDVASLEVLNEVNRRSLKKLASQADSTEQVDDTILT
T8 sequence (Q13546 whole entry): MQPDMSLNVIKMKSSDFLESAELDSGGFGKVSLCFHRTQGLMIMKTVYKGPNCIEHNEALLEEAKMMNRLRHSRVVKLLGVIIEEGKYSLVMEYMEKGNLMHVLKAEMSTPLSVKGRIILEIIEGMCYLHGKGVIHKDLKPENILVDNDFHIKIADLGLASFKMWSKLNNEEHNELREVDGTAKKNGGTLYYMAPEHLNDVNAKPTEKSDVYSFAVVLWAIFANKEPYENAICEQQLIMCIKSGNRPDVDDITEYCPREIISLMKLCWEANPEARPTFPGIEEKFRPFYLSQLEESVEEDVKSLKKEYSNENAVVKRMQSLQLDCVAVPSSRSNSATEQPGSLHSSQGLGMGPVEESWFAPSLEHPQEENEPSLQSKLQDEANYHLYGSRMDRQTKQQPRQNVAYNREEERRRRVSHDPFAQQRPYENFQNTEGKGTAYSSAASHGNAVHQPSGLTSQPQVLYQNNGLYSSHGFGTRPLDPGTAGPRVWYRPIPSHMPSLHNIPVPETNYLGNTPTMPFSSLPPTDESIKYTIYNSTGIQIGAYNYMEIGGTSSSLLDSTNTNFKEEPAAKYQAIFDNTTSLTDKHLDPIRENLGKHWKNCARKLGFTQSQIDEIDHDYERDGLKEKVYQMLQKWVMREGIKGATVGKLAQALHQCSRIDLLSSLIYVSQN
T14 sequence (P50990 whole entry): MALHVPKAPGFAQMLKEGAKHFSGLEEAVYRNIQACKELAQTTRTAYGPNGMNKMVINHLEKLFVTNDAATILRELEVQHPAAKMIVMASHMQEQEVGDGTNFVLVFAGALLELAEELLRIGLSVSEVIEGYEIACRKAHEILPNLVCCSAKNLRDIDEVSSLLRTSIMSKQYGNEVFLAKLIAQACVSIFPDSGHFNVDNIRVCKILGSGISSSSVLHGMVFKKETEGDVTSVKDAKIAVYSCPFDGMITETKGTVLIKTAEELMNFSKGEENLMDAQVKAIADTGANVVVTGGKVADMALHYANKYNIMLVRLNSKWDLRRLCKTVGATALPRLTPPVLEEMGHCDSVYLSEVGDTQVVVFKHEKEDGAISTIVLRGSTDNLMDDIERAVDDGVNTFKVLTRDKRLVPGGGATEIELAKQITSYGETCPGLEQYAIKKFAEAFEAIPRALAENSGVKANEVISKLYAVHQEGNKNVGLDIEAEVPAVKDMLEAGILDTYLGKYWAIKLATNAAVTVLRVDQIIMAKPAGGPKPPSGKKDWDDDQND
T12 sequence (P68363 whole entry): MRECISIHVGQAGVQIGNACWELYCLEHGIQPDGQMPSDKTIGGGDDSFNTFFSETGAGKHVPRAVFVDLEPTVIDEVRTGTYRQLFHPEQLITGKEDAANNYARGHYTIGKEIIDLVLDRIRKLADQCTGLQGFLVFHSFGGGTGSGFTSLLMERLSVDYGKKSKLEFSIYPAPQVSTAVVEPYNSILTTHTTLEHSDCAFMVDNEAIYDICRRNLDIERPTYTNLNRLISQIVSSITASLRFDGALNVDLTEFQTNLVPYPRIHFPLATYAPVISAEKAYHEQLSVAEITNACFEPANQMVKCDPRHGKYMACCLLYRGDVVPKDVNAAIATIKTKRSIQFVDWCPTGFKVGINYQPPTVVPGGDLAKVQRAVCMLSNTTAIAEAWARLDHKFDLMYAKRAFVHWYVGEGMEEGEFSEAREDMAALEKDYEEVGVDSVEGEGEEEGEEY

For the compound `Cc1ccc(C(=O)Nc2ccc(CN3CCN(C)CC3)c(C(F)(F)F)c2)cc1C#Cc1cnc2cccnn12` [PON], the “Average LFQ PON_WT” value in [1] was found to be 21.1214; in test [2] it was 23.2218; in test [3] it was 20.8973; in test [4] it was 25.081; in [5], 18.8901; in [6] it was 23.524. For the same compound, the “Average LFQ PON_WT” value worked out at 23.5357 in test [7]; 25.0833 in test [8]; 20.8592 in test [9]; 21.6692 in [10]; 21.0026 in test [11]; 27.3228 in test [12]. Besides, the “Average LFQ PON_WT” value in test [13] is listed as 18.8692; in test [14], 24.1007; in test [15] it was 21.3466; in test [16] it was 23.6834; in [17], 23.8618; in [18] it was 20.5709.
Take `Cc1ccc(C(=O)Nc2ccc(CN3CCN(CCCN)CC3)c(C(F)(F)F)c2)cc1C#Cc1cnc2cccnn12` [c-ponatinib, reference compound]: the “Average LFQ intensity” value in test [19] came out at 22.4465.
